According to patent US20210269440A1 (BETTA PHARMACEUTICALS CO., LTD, priority 2018, published 2021):
pIC50: −log10 of the molar value. Like-named read-outs stand apart in the source and are kept apart here.

Biological target: T1, PD-1/PD-L1 protein/protein interaction (Homo sapiens, UniProt Q9NZQ7)
T1 construct: Recombinant human PD-L1 protein (19-238) with a His-tag at the C-terminus; purchased AcroBiosystems PD1-H5229 (PD-L1); PD1-H5257 (PD-1)
Assay: PD-1/PD-L1 homogenous time-resolved fluorescence (HTRF) binding assay
Settings: for biological activity (potency), as shown in Table 1: R is the group comprising morpholine
Method: Resolved Fluorescence (HTRF) Binding Assay
The assays were conducted in a standard black 384-well polystyrene plate with a final volume of […]. Inhibitors were first serially diluted in DMSO and then added to the plate wells before the addition of other reaction components. The final concentration of DMSO in the assay was 1%. The assays were carried out at 25° C. in the PBS buffer (pH 7.4) with 0.05% Tween-20 and 0.1% BSA. […] Plates were centrifuged and proteins were preincubated with inhibitors for 40 min. The incubation was followed by the addition of 10 μL of HTRF detection buffer supplemented with Europium cryptate-labeled anti-human IgG (PerkinElmer-AD0212) specific for Fc and anti-His antibody conjugated to SureLight®—Allophycocyanin (APC, PerkinElmer-AD0059H). After centrifugation, the plate was incubated at 25° C. for 60 min. […] Final concentrations in the assay were […] PD1, 10 nM PD-L1, 1 nM europium anti-human IgG and 20 nM anti-His-Allophycocyanin. IC50 determination was performed by fitting the curve of percent control activity versus the log of the inhibitor concentration using the GraphPad Prism 5.0 software.

[1] = HTRF, recombinant human PD-1 (Fc tag) / PD-L1 (His-tag), 25° C., PBS pH 7.4, read-out: IC50

T1 sequence (Q9NZQ7 19-238): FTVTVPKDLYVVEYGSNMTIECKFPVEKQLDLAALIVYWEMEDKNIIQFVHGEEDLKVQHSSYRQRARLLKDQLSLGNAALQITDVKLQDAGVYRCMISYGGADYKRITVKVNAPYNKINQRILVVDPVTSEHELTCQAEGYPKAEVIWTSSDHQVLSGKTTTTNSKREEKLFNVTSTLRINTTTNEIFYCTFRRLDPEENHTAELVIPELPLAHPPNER

Row | pIC50 [1] | biological activity (potency), as shown in Table 1 | pIC50 | Compound
1 | 9.37 | much more potent | – | Cc1c(Nc2nccc3cc(CNCC(=O)O)cnc23)cccc1-c1cccc(OCCCN2CCOCC2)c1C [Compound 1, ((8-((2,2′-dimethyl-3′-(3-morpholinopropoxy)-[1,1′-biphenyl]-3-yl)amino)-1,7-naphthyridin-3-yl)methyl)glycine]
2 | 8.52 | – | – | Cc1c(Nc2nccc3cc(CNCC(=O)O)cnc23)cccc1-c1ccccc1 [Compound 2, ((8-((2-methyl-[1,1′-biphenyl]-3-yl)amino)-1,7-naphthyridin-3-yl)methyl)glycine]
3 | 8.70 | much more potent | – | Cc1c(Nc2nccc3cc(CN4CCC[C@H]4C(=O)O)cnc23)cccc1-c1cccc(OCCCN2CCOCC2)c1C [Compound 3, ((8-((2,2′-dimethyl-3′-(3-morpholinopropoxy)-[1,1′-biphenyl]-3-yl)amino)-1,7-naphthyridin-3-yl)methyl)proline]
4 | 7.89 | – | – | Cc1c(Nc2nccc3cc(CN4CCC[C@H]4C(=O)O)cnc23)cccc1-c1ccccc1 [Compound 4, ((8-((2-methyl-[1,1′-biphenyl]-3-yl)amino)-1,7-naphthyridin-3-yl)methyl)proline]
5 | – | much more potent | 8.48 | Cc1c(Nc2nccc3cc(CN4CCCCC4C(=O)O)cnc23)cccc1-c1cccc(OCCCN2CCOCC2)c1C (stereo not drawn) [Compound 5]
6 | 8.55 | – | – | Cc1c(Nc2nccc3cc(CN4CC(O)CC4C(=O)O)cnc23)cccc1-c1cccc(OCCCN2CCOCC2)c1C (stereo not drawn) [Compound 6, 1-((8-((2,2′-dimethyl-3′-(3-morpholinopropoxy)-[1,1′-biphenyl]-3-yl)amino)-1,7-naphthyridin-3-yl)methyl)-4-hydroxypyrrolidine-2-carboxylic acid]
7 | 9.40 | – | – | Cc1c(Nc2nccc3cc(CNCCC(=O)O)cnc23)cccc1-c1cccc(OCCCN2CCOCC2)c1C [Compound 7, 3-(((8-((2,2′-dimethyl-3′-(3-morpholinopropoxy)-[1,1′-biphenyl]-3-yl)amino)-1,7-naphthyridin-3-yl)methyl)amino)propanoic acid]
8 | 9.05 | – | – | Cc1c(Nc2nccc3cc(CNCCCC(=O)O)cnc23)cccc1-c1cccc(OCCCN2CCOCC2)c1C [Compound 8, 4-(((8-((2,2′-dimethyl-3′-(3-morpholinopropoxy)-[1,1′-biphenyl]-3-yl)amino)-1,7-naphthyridin-3-yl)methyl)amino)butanoic acid]
9 | 8.92 | – | – | Cc1c(Nc2nccc3cc(CN4CCC(C(=O)O)C4)cnc23)cccc1-c1cccc(OCCCN2CCOCC2)c1C (stereo not drawn) [Compound 9, 1-((8-((2,2′-dimethyl-3′-(3-morpholinopropoxy)-[1,1′-biphenyl]-3-yl)amino)-1,7-naphthyridin-3-yl)methyl)pyrrolidine-3-carboxylic acid]
10 | 9.30 | – | – | Cc1c(Nc2nccc3cc(CN[C@@H](CO)C(=O)O)cnc23)cccc1-c1cccc(OCCCN2CCOCC2)c1C [Compound 10, ((8-((2,2′-dimethyl-3′-(3-morpholinopropoxy)-[1,1′-biphenyl]-3-yl)amino)-1,7-naphthyridin-3-yl)methyl)serine]
11 | – | – | 8.00 to 8.70 | Cc1c(Nc2nccc3cc(CN(C)CC(=O)O)cnc23)cccc1-c1cccc(OCCCN2CCOCC2)c1C [Compound 11, N-((8-((2,2′-dimethyl-3′-(3-morpholinopropoxy)-[1,1′-biphenyl]-3-yl)amino)-1,7-naphthyridin-3-yl)methyl)-N-methylglycine]
12 | – | – | 6.82 to 8.00 | Cc1c(Nc2nccc3cc(CN4CC(F)(F)CC4C(=O)O)cnc23)cccc1-c1cccc(OCCCN2CCOCC2)c1C (stereo not drawn) [Compound 12, 1-((8-((2,2′-dimethyl-3′-(3-morpholinopropoxy)-[1,1′-biphenyl]-3-yl)amino)-1,7-naphthyridin-3-yl)methyl)-4,4-difluoropyrrolidine-2-carboxylic acid]
13 | – | – | > 8.70 | Cc1c(Nc2nccc3cc(CNC(C)(CO)C(=O)O)cnc23)cccc1-c1cccc(OCCCN2CCOCC2)c1C (stereo not drawn) [Compound 13, 2-(((8-((2,2′-dimethyl-3′-(3-morpholinopropoxy)-[1,1′-biphenyl]-3-yl)amino)-1,7-naphthyridin-3-yl)methyl)amino)-3-hydroxy-2-methylpropanoic acid]
14 | – | – | > 8.70 | CCN(CC(=O)O)Cc1cnc2c(Nc3cccc(-c4cccc(OCCCN5CCOCC5)c4C)c3C)nccc2c1 [Compound 14, N-((8-((2,2′-dimethyl-3′-(3-morpholinopropoxy)-[1,1′-biphenyl]-3-yl)amino)-1,7-naphthyridin-3-yl)methyl)-N-ethylglycine]
15 | – | – | > 8.70 | Cc1c(Nc2nccc3cc(CN4CC(C(=O)O)C4)cnc23)cccc1-c1cccc(OCCCN2CCOCC2)c1C [Compound 15, 1-((8-((2,2′-dimethyl-3′-(3-morpholinopropoxy)-[1,1′-biphenyl]-3-yl)amino)-1,7-naphthyridin-3-yl)methyl)azetidine-3-carboxylic acid]
16 | – | – | > 8.70 | Cc1c(Nc2nccc3cc(CN4CCCCC4C(=O)O)cnc23)cccc1-c1cccc(OCCCN2CCCCC2)c1C (stereo not drawn) [Compound 16, 1-((8-((2,2′-dimethyl-3′-(3-(piperidin-1-yl)propoxy)-[1,1′-biphenyl]-3-yl)amino)-1,7-naphthyridin-3-yl)methyl)piperidine-2-carboxylic acid]
17 | – | – | 8.00 to 8.70 | Cc1c(Nc2nccc3cc(CN4CCCCC4C(=O)O)cnc23)cccc1-c1cccc(OCCCN2CCN(C)CC2)c1C (stereo not drawn) [Compound 17, 1-((8-((2,2′-dimethyl-3′-(3-(4-methylpiperazin-1-yl)propoxy)-[1,1′-biphenyl]-3-yl)amino)-1,7-naphthyridin-3-yl)methyl)piperidine-2-carboxylic acid]
18 | – | – | > 8.70 | Cc1c(Nc2nccc3cc(CN4CCCCC4C(=O)O)cnc23)cccc1-c1cccc(OCCCN2CCCC2)c1C (stereo not drawn) [Compound 18, 1-((8-((2,2′-dimethyl-3′-(3-(pyrrolidin-1-yl)propoxy)-[1,1′-biphenyl]-3-yl)amino)-1,7-naphthyridin-3-yl)methyl)piperidine-2-carboxylic acid]
19 | – | – | > 8.70 | Cc1c(Nc2nccc3cc(CN4CCCCC4C(=O)O)cnc23)cccc1-c1cccc(OCCCN2CCC(O)C2)c1C (stereo not drawn) [Compound 19, 1-((8-((3′-(3-(3-hydroxypyrrolidin-1-yl)propoxy)-2,2′-dimethyl-[1,1′-biphenyl]-3-yl)amino)-1,7-naphthyridin-3-yl)methyl)piperidine-2-carboxylic acid]
20 | – | – | < 6.82 | Cc1c(Nc2nccc3cc(CN4CCCCC4C(=O)O)cnc23)cccc1-c1cccc2c1CCN2CCCN1CCOCC1 (stereo not drawn) [Compound 20, 1-((8-((2-methyl-3-(1-(3-morpholinopropyl)indolin-4-yl)phenyl)amino)-1,7-naphthyridin-3-yl)methyl)piperidine-2-carboxylic acid]
21 | – | – | > 8.70 | CCN(CC)CCCOc1cccc(-c2cccc(Nc3nccc4cc(CN5CCCCC5C(=O)O)cnc34)c2C)c1C (stereo not drawn) [Compound 21, 1-((8-((3′-(3-(diethylamino)propoxy)-2,2′-dimethyl-[1,1′-biphenyl]-3-yl)amino)-1,7-naphthyridin-3-yl)methyl)piperidine-2-carboxylic acid]
22 | – | – | 8.00 to 8.70 | Cc1c(Nc2nccc3cc(CN4CCCCC4C(=O)O)cnc23)cccc1-c1cccc(OCCCN(C)Cc2ccccc2)c1C (stereo not drawn) [Compound 22, 1-((8-((3′-(3-(benzyl(methyl)amino)propoxy)-2,2′-dimethyl-[1,1′-biphenyl]-3-yl)amino)-1,7-naphthyridin-3-yl)methyl)piperidine-2-carboxylic acid]
23 | – | – | > 8.70 | CCNCCCOc1cccc(-c2cccc(Nc3nccc4cc(CN5CCCCC5C(=O)O)cnc34)c2C)c1C (stereo not drawn) [Compound 23, 1-((8-((3′-(3-(ethylamino)propoxy)-2,2′-dimethyl-[1,1′-biphenyl]-3-yl)amino)-1,7-naphthyridin-3-yl)methyl)piperidine-2-carboxylic acid]
24 | – | – | < 6.82 | CC(=O)NCCCOc1cccc(-c2cccc(Nc3nccc4cc(CN5CCCCC5C(=O)O)cnc34)c2C)c1C (stereo not drawn) [Compound 24, 1-((8-((3′-(3-acetamidopropoxy)-2,2′-dimethyl-[1,1′-biphenyl]-3-yl)amino)-1,7-naphthyridin-3-yl)methyl)piperidine-2-carboxylic acid]
25 | – | – | < 6.82 | Cc1c(Nc2nccc3cc(CN4CCCCC4C(=O)O)cnc23)cccc1-c1cccc(OCCCNC(N)=O)c1C (stereo not drawn) [Compound 25, 1-((8-((2,2′-dimethyl-3′-(3-ureidopropoxy)-[1,1′-biphenyl]-3-yl)amino)-1,7-naphthyridin-3-yl)methyl)piperidine-2-carboxylic acid]
26 | – | – | < 6.82 | Cc1c(Nc2nccc3cc(CN4CCCCC4C(=O)O)cnc23)cccc1-c1cccc(OCCCNC(=N)N)c1C (stereo not drawn) [Compound 26, 1-((8-((3′-(3-guanidinopropoxy)-2,2′-dimethyl-[1,1′-biphenyl]-3-yl)amino)-1,7-naphthyridin-3-yl)methyl)piperidine-2-carboxylic acid]
27 | – | – | < 6.82 | Cc1c(Nc2nccc3cc(CN4CCCCC4C(=O)O)cnc23)cccc1-c1cccc(OCCCNS(C)(=O)=O)c1C (stereo not drawn) [Compound 27, 1-((8-((2,2′-dimethyl-3′-(3-(methylsulfonamido)propoxy)-[1,1′-biphenyl]-3-yl)amino)-1,7-naphthyridin-3-yl)methyl)piperidine-2-carboxylic acid]
